Measured values reported in patent US8080580B2, “Dioxa-bicyclo[3.2.1]octane-2,3,4-triol derivatives” (Pfizer Inc., priority 2008, dated 2011).
Where “and” joins values, the source holds several entries; their conditions need not be identical. Equal values may be shown once.

Tests used:
[1] = molecular target: T1, human SGLT2 (Homo sapiens, UniProt P31639); assay: SGLT2 functional assay: inhibition of AMG uptake in CHO-FlpIn cells stably expressing human SGLT2; assay type: cell-based; details: individual runs (Run No.), read-out: hSGLT2 IC50
T1 construct: expressed in transfected cells; host or cells: CHO-FlpIn (Invitrogen)
T1 sequence (P31639 1-672): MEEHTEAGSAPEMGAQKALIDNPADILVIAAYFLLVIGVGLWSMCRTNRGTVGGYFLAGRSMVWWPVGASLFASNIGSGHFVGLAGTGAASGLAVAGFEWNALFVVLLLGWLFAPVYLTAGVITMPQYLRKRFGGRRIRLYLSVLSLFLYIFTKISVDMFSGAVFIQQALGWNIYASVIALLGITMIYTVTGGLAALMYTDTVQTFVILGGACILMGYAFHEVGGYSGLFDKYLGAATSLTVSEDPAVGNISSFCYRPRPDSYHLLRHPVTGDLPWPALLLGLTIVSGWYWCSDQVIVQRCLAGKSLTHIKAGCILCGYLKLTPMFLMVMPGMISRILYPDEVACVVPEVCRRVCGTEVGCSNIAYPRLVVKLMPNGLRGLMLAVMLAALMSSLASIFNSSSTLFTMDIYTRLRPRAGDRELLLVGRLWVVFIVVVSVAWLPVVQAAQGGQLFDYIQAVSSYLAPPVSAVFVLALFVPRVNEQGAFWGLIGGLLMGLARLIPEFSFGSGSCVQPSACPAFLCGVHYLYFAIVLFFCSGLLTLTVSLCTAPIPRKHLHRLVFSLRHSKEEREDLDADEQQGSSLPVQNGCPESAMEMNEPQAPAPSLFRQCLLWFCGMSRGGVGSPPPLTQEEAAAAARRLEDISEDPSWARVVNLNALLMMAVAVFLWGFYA
Text: The SGLT2 functional assay was designed to detect the inhibition of methyl-alpha-D glucopyranoside (AMG—a non-metabolizable form of glucose) uptake via the SGLT2 transporter. The SGLT2 transporter recovers glucose from the proximal tubules of the kidney; its inhibition results in sugar wasted in the urine. The positive control compound, Phlorizin, is a known inhibitor of glucose uptake for SGLT2 and was used for comparing the high percent effect of SGLT2 inhibition of the test compounds.
CHO-FlpIn (Invitrogen, Carlsbad, Calif.) cells stably expressing human SGLT2 (pcDNA5/FRT) were plated in Iso-TC 96 well plates (Perkin Elmer, Waltham, Mass.) at a density of 100,000 cells/well in 100 microL of growth media (1:1 F-12/DMEM media (Gibco, Carlsbad, Calif.), 10% FBS (Sigma, St. Louis Mo.), 1× Pen/Strep (Gibco, Carlsbad, Calif.), 600 microg/mL Hygromycin (Invitrogen, Carlsbad, Calif.)). Prior to treating with test compound, confluent cells were serum starved for 2 hours at 37° C. in 1:1 F-12/DMEM media, replacing with fresh F-12/DMEM media after 1 hour. […] Cell plates were then incubated for 3 hours at 37° C. for AMG uptake.

[2] = Pharmacokinetic testing in rats (IV or PO); assay type: in vivo; details: rat
Description: Examples 1A, 2A, 4A, 12A, and 14A were tested in rats to assess pharmacokinetic parameters including maximum concentration (Cmax), area under the plasma concentration time curve (AUC), clearance (CL), steady state volume of distribution (Vss), half life (t1/2), and bioavailability (F). Male Sprague Dawley rats (˜300 g) were used. Rats received compound by intravenous (IV) or oral gavage (PO) administration and the doses tested including vehicle to formulate dosing solutions are listed in Table 5.
Following IV or PO administration, 0.2 mL blood was sampled from the jugular vein at various timepoints (Table 5). Twenty microL aliquots of plasma samples and standards were subjected to protein precipitation with acetonitrile containing an internal standard. Samples were vortexed and centrifuged to obtain supernatant which was analyzed by LC-MS/MS. Analyst (Version 1.4.1) was used to measure peak areas and peak area ratios of analyte to internal standard were calculated. LC-MS/MS conditions are as follows: Mass Spectrometer+Source Type was Sciex API 4000−Turbo Spray; HPLC pump was Shimadzu; Autosampler was CTC PAL Autosampler; Injection volume was 3.0 to 10 microL; A gradient was used with mobile phase A: 10 mM ammonium acetate and 1% Isopropyl alcohol in water; B: Acetonitrile; Flowrate 0.300 mL per minute (Column 2.0×30 mm 5 microm LUNA C18 column (phenomenex)). Detection mode was negative.
A calibration curve was constructed from the peak area ratios of the standards to the internal standard by applying a weighted linear (1/x or 1/x2) regression. The dynamic range of the standard curve was 5.00 ng/mL to 5000 ng/mL.
Pharmacokinetic parameters were determined from individual animal data using non-compartmental analysis in Watson (version 7.2). Concentrations below the limit of quantitation (BLQ) were recorded as 0 ng/mL for use in calculations.
The following calculations were used: AUC(0−τ)=Determined using the linear trapezoidal method AUC(0−□)=AUC(0−τ) plus extrapolated area determined by dividing plasma concentration at τ by the slope of the terminal log-linear phase CL=Dose/AUC(0−∞) Vdss=CL×MRT Cmax=Recorded directly from plasma concentration time curve Tmax=Recorded directly from plasma concentration time curve t½=ln(0.5)/slope of the terminal log-linear phase F %=AUC(0−∞)PO per dose/AUC(0−∞)IV per dose C(0)=Extrapolated by linear regression from the apparent distribution phase following IV administration MRT=AUMC(AUC(0−∞)/AUC(0−∞)

[3] = molecular target: T2, hSGLT1 (Homo sapiens, UniProt P13866); assay: SGLT1 functional assay: hSGLT1 IC50 (selectivity counter-screen to the SGLT2 AMG uptake assay); assay type: cell-based; details: individual runs (Run No.)
T2 sequence (P13866 1-664): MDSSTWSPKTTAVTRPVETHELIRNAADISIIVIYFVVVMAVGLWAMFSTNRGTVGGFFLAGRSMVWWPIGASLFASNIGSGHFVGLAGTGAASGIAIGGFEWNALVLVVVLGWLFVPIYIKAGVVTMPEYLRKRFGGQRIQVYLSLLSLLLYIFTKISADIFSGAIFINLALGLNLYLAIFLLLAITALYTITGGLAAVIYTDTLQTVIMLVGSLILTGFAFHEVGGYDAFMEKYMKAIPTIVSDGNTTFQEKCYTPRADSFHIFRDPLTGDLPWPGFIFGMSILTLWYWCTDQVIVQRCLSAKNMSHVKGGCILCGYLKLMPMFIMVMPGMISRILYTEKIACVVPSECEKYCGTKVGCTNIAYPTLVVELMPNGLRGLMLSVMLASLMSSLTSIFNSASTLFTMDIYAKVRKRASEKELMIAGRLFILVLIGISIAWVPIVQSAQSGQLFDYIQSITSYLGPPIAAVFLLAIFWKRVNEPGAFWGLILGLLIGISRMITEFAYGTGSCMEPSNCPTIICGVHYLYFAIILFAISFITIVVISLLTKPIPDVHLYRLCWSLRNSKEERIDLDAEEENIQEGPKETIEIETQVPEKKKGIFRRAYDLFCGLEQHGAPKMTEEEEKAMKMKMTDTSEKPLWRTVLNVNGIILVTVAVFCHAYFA

[4] = male, Sprague Dawley, plasma, IV, 2 mg/kg
[5] = male, Sprague Dawley, plasma, PO, 10 mg/kg, PEG200/0.5% MC
[6] = male, Sprague Dawley, plasma, PO, 2 mg/kg, Tween 80/0.5% MC
[7] = male, Sprague Dawley, plasma, PO, 5 mg/kg, 20% PEG/24% HBCD

SMILES	IC50 [1]	AUC(0-inf) [2, 4]	AUC(0-inf) [2, 5]	Cmax [2, 5]	half-life [2, 5]	CL ([2]; IV, 2 mg/kg)	Vss ([2]; IV, 2 mg/kg)	t1/2 ([2]; IV, 2 mg/kg)	F ([2]; PO, 10 mg/kg, PEG200/0.5% MC)	IC50 [3]	Vd ([2]; male, Sprague Dawley, plasma, IV, 2 mg/kg, read-out: Vss)	AUC(0-inf) [2, 6]	Cmax [2, 6]	half-life [2, 6]	AUC(0-inf) [2, 7]	Cmax [2, 7]	F ([2]; PO, 2 mg/kg, Tween 80/0.5% MC)	F ([2]; PO, 5 mg/kg, 20% PEG/24% HBCD)
COc1ccc(Cc2cc([C@]34OC[C@](CO)(O3)[C@@H](O)[C@H](O)[C@H]4O)ccc2C)cc1 [Example 1A, (1S,2S,3S,4R,5S)-1-hydroxymethyl-5-[3-(4-methoxy-benzyl)-4-methyl-phenyl]-6,8-dioxa-bicyclo[3.2.1]octane-2,3,4-triol]	1.61 nM and 1.55 nM and 1.15 nM and 0.779 nM and 0.715 nM and 0.654 nM	947 ng·h/mL	2680 ng·h/mL	1650 ng/mL	2.82 h	37.1 mL/min/kg	1.71 L/kg	0.962 h	56.5%	359 nM and 1080 nM and 454 nM and 327 nM and 562 nM and 262 nM	–	–	–	–	–	–	–	–
CCOc1ccc(Cc2cc([C@]34OC[C@](CO)(O3)[C@@H](O)[C@H](O)[C@H]4O)ccc2Cl)cc1 [Example 4A, (1S,2S,3S,4R,5S)-5-[4-chloro-3-(4-ethoxy-benzyl)-phenyl]-1-hydroxymethyl-6,8-dioxa-bicyclo[3.2.1]octane-2,3,4-triol]	1.27 nM and 0.816 nM and 0.57 nM and 0.922 nM and 1.85 nM and 0.812 nM and 0.7 nM and 0.737 nM and 0.846 nM and 0.768 nM	8480 ng·h/mL	–	–	–	4.04 mL/min/kg	–	4.1 h	–	1590 nM and 1010 nM and 1750 nM and > 1000 nM and 2090 nM and 1810 nM and 2860 nM and 2480 nM and 2840 nM	1.1 L/kg	5650 ng·h/mL	772 ng/mL	3.7 h	16800 ng·h/mL	1190 ng/mL	67%	79%
